Assay results reported in US6831199B1, “Pyrimidine compounds and derivatives thereof” (G. D. Searle & Co., priority 1995, dated 2004).
Where a name gives a salt, the structure may show the parent alone. Read-outs that look alike come from different tables or passages of the source.

Key:
[1] = target: T1, Human vitronectin receptor (αvβ3) (Homo sapiens, UniProt P05106+P06756); assay: Vitronectin adhesion assay (solid phase receptor assay, competition with biotinylated vitronectin); type: binding; conditions: read-out: AvB3 IC50
T1 construct: Human vitronectin receptor (αvβ3) was purified from human placenta; from tissue; host or cells: human placenta
Procedure, shortened: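 Purified human αvβ3 coated overnight at 4 °C in TBS with 1.0 mM Ca++, Mg++, Mn++, pH 7.4; compounds (top final 1.0×10^−4 M) competed with 1 nM biotinylated vitronectin for 2 h at room temperature. Bound ligand detected by HRP anti-biotin/OPD at A450; values normalized to no-competitor controls, four-parameter curve fit.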

[2] = target: T2, Human fibrinogen receptor (αIIbβ3) (Homo sapiens, UniProt P05106+P08514); assay: Purified IIb/IIIa receptor assay (solid phase receptor assay, competition with biotinylated vitronectin); type: binding; conditions: read-out: IIb/IIIa IC50
T2 construct: Human fibrinogen receptor (αIIbβ3) was purified from outdated platelets; from tissue; host or cells: outdated human platelets
Procedure, shortened: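 Purified platelet αIIbβ3 coated overnight at 4 °C in TBS with 1.0 mM Ca/Mg/Mn, pH 7.4, then BSA-blocked. Compounds (top 1.0×10^−4 M) competed with 1 nM biotinylated vitronectin for 2 h at room temperature. Bound label detected by HRP anti-biotin, A450; values normalized to no-competitor controls, four-parameter fit.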

platelet rich plasma = assay: Human platelet rich plasma assay (ADP induced platelet aggregation); type: cell-based; conditions: ADP induced platelet aggregation in human platelet rich plasma, read-out: Human PRP
Protocol: Human Platelet Rich Plasma Assays
Healthy aspirin free donors were selected from a pool of volunteers. The harvesting of platelet rich plasma and subsequent ADP induced platelet aggregation assays were performed as described in Zucker, M. B., “Platelet Aggregation Measured by the Photometric Method”, Methods in Enzymology 169(1989):117-133. Standard venipuncture techniques using a butterfly allowed the withdrawal of 45 mL of whole blood into a 60 mL syringe containing 5 mL of 3.8% trisodium citrate. Following thorough mixing in the syringe, the anti-coagulated whole blood was transferred to a 50 mL conical polyethylene tube. The blood was centrifuged at room temperature for 12 minutes at 200×g to sediment non-platelet cells. Platelet rich plasma was removed to a polyethylene tube and stored at room temperature until used. Platelet poor plasma was obtained from a second centrifugation of the remaining blood at 2000×g for 15 minutes. Platelet counts are typically 300,000 to 500,000 per microliter. Platelet rich plasma (0.45 mL) was aliquoted into siliconized cuvettes and stirred (1100 rpm) at 37° C. for 1 minute prior to adding 50 uL of pre-diluted test compound. After 1 minute of mixing, aggregation was initiated by the addition of 50 uL of 200 uM ADP. Aggregation was recorded for 3 minutes in a Payton dual channel aggregometer (Payton Scientific, Buffalo, N.Y.). The percent inhibition of maximal response (saline control) for a series of test compound dilutions was used to determine a dose response curve.

Structure (SMILES)	IC50 [1]	IC50 [2]	IC50 (platelet rich plasma; Homo sapiens, Platelet)	IC50 (platelet rich plasma)
N=C(N)Nc1cccc(C(=O)NCC(=O)NC(CCSc2ccccc2C(=O)O)CC(=O)O)c1 (racemic) [60(B), (±)2-[3-[[2-[[[3-[(aminoiminomethyl)amino]phenyl)carbonyl]amino]acetyl]amino]-4-carboxybutyl]thio]benzoic acid, trifluoroacetate salt]	1.21 nM	72.7 nM		> 200000 nM
O=C(O)CC(NC(=O)CNC(=O)c1cccc(NC2=NCCCCC2)c1)c1cc(Cl)cc(Cl)c1O (racemic) [Example 232, (±)3,5-dichloro-2-hydroxy-β-[[2-[[[3-[(3,4,5,6-tetrahydro-2H-azepin-7-yl)amino]phenyl]carbonyl]amino]acetyl]amino]benzenepropanoic acid, trifluoroacetate salt, monohydrate]	19.1 nM	12100 nM	> 200000 nM	
O=C(O)CC(NC(=O)CNC(=O)c1cccc(NC(=O)Nc2ccccc2)c1)c1cccnc1 (stereo not drawn) [Example 108, β-[[2-[[[3-[[(phenylamino]carbonyl]amino]phenyl]carbonyl]amino]acetyl]amino]pyridine-3-propanoic acid, trifluoroacetate salt]	25.2 nM	4870 nM	> 200000 nM	
CCOC(=O)CC(NC(=O)CNC(=O)c1cccc(NC(N)=S)c1)c1cccnc1 (stereo not drawn) [Example 113, ethyl β-[[2-[[[3-[(aminothioxomethyl)amino]phenyl]carbonyl]amino]acetyl]amino]pyridine-3-propanoate, trifluoroacetate salt]	276 nM	≥ 100000 nM		
C/N=C(/Nc1cccc(C(=O)NCC(=O)NC(CC(=O)O)c2cc(Cl)cc(Cl)c2)c1)NC(C)C (racemic) [Example 296, (±)3,5-dichloro-β-[[2-[[[3-[[[(1-methylethyl)amino](methylimino)methyl]amino]phenyl]carbonyl]amino]acetyl]amino]benzenepropanoic acid, trifluoroacetate salt]	404 nM	9450 nM		
CCOC(=O)CC(NC(=O)CNC(=O)c1cccc(NC(=O)Nc2ccccc2)c1)c1cccnc1 (stereo not drawn) [Example 107, ethyl β-[[2-[[[3-[[(phenylamino]carbonyl]amino]phenyl]carbonyl]amino]acetyl]amino]-pyridine-3-propanoate]	6400 nM	18700 nM		
O=C(O)CC(NC(=O)CNC(=O)c1cccc(NC(=O)NCc2cc(Cl)cc(Cl)c2)c1)c1cccnc1 (stereo not drawn) [Example 273, β-[[2-[[[3-[[[[(3,5-dichlorophenyl)methyl]amino]carbonylamino]phenyl]carbonyl]amino]acetyl]amino]pyridine-3-propanoic acid, trifluoroacetate salt]	12.9 nM	4160 nM		
CCN/C(=N\C#N)Nc1cccc(C(=O)NCC(=O)NC(CC(=O)OCC)c2ccccc2)c1 (stereo not drawn) [Example 135, ethyl β-[[2-[[[3-[[(cyanoimino)(ethylamino)methyl]amino]phenyl]carbonyl]amino]acetyl]amino]benzenepropanoate]	50700 nM	> 100000 nM		
Cc1ccc(S(=O)(=O)NC(=O)Nc2cccc(C(=O)NCC(=O)NC(CC(=O)O)c3cccnc3)c2)cc1 (stereo not drawn) [Example 112, β-[[2-[[[3-[[[[(4-methylphenyl)sulfonyl]amino]carbonyl]amino]phenyl]carbonyl]amino]acetyl]amino]pyridine-3-propanoic acid, trifluoroacetate salt]	284 nM	6340 nM		
O=C(O)CC(NC(=O)CNC(=O)c1cccc(Nc2ncc(-c3ccccc3)[nH]2)c1)c1cccnc1 (stereo not drawn) [Example 287, β-[[2-[[[3-[[5-phenyl-1H-imidazol-2-yl)amino]phenyl]carbonylamino]acetyl]amino]pyridine-3-propanoic acid, trifluoroacetate salt]	49.7 nM	41.1 nM		
O=C(O)CC(NC(=O)CNC(=O)c1cccc(NC2=NCCCN2)c1)c1cc(Cl)cc(Cl)c1O (racemic) [Example 237, (±)3,5-dichloro-2-hydroxy-β-[[2-[[[3-[(1,4,5,6-tetrahydropyrimidin-2-yl)amino]phenyl]carbonyl]amino]acetyl]amino]benzenepropanoic acid, trifluoroacetate salt, monohydrate]	0.57 nM	1950 nM		

The next lines start with results.

IC50 [1]	IC50 [2]	IC50 (platelet rich plasma; Homo sapiens, Platelet)	Structure (SMILES)	IC50 (platelet rich plasma)
10.7 nM	175 nM	> 200000 nM	COC(=O)CC(CC(=O)O)NC(=O)CNC(=O)c1cccc(NC(=N)N)c1 (racemic) [Example 54, (±)hydrogen methyl 3-[[2-[[[3-[(aminoiminomethyl)amino]phenyl]carbonyl]amino]acetyl]amino]pentanedioate, trifluoroacetate salt]	
6.35 nM	732 nM	> 200000 nM	N=C(N)Nc1cccc(C(=O)NCC(=O)NC(CC(=O)O)c2ccccc2O)c1 (racemic) [Example 87, (±)sodium β-[[2-[[[3-[(aminoiminomethyl)amino]phenyl]carbonyl]amino]acetyl]amino]-2-hydroxybenzenepropanoate, sodium salt, trifluoroacetate salt]	
1.42 nM	28.4 nM	> 200000 nM	COC(=O)c1ccccc1SCCC(CC(=O)O)NC(=O)CNC(=O)c1cccc(NC(=N)N)c1 (racemic) [Example 62, (±)methyl 2-[[3-[2-[[[3-[(aminoiminomethyl)amino]phenyl]carbonyl]amino]acetyl]amino]-4-carboxybutyl]thio]benzoate, trifluoroacetate salt]	
12.1 nM	830 nM	> 200000 nM	N=C(N)Nc1cccc(C(=O)NCC(=O)NC(CC(=O)O)c2cccc3ccccc23)c1 (racemic) [Example 41, (±)β-[[2-[[[3-[(aminoiminomethyl)amino]phenyl]carbonyl]amino]acetyl]amino]naphthalene-1-propanoic acid, trifluoroacetate salt]	
14.2 nM	809 nM	> 200000 nM	N=C(Nc1cccc(C(=O)NCC(=O)NC(CC(=O)O)c2cccnc2)c1)c1ccccc1 (racemic) [Example 26, (±)β-[[2-[[[3-[(iminophenylmethyl]amino]phenyl]carbonyl]amino]acetyl]amino]pyridine-3-propanoic acid, bis(trifluoroacetate)salt]	
1.04 nM	15.9 nM	80000 nM	N=C(N)Nc1cccc(C(=O)NCC(=O)NC(CC(=O)O)c2ccc3c(c2)OCO3)c1 (racemic) [Example 6, (±)β-[[2-[[[3-[(aminoiminomethyl)amino]phenyl]carbonyl]amino]acetyl]amino]-1,3-benzodioxole-5-propanoic acid, trifluoroacetate salt]	
89.8 nM	3920 nM		CCN/C(=N\C)Nc1cccc(C(=O)NCC(=O)NC(CC(=O)O)c2ccc(F)cc2)c1 (racemic) [Example 297, (±)β-[[2-[[[3-[[(ethylamino)(methylimino)methyl]amino]phenyl]carbonyl]amino]acetyl]amino]-4-fluorobenzenepropanoic acid, trifluoroacetate salt]	
9730 nM	> 100000 nM		CCOC(=O)CC(NC(=O)CNC(=O)c1cccc(NC(=N)N)c1)c1ccoc1 (racemic) [Example 51, (±)ethyl β-[[2-[[[3-[(aminoiminomethyl)amino]phenyl]carbonyl]amino]acetyl]amino]furan-3-propanoate, trifluoroacetate salt]	
8.62 nM	1060 nM		N=C(N)Nc1cccc(C(=O)NCC(=O)NC(CC(=O)O)CC(=O)Nc2cc(Cl)cc(Cl)c2)c1 (centres unmarked) [Example 288, 3-[[2-[[[3-[(aminoiminomethyl)amino]phenyl]carbonyl]amino]acetyl]amino)-5-[(3,5-dichlorophenyl)amino]-5-oxopentanoic acid, trifluoroacetate salt]	
1.31 nM	264 nM		N=C(N)Nc1cccc(C(=O)NCC(=O)NC(CC(=O)O)c2ccc(Br)cc2)c1 (racemic) [Example 187, (±)β-[[2-[[[3-[(aminoiminomethyl)amino]phenyl]carbonylamino]acetyl]amino]-4-bromobenzenepropanoic acid, trifluoroacetate salt]	
1.09 nM	98 nM		COc1cc(OC)cc(C(CC(=O)O)NC(=O)CNC(=O)c2cccc(NC(=N)N)c2)c1 (racemic) [Example 195, (±)β-[[2-[[[3-[(aminoiminomethyl)amino]phenyl]carbonyl]amino]acetyl]amino]-3,5-dimethoxybenzenepropanoic acid, trifluoroacetate salt]	
